From PubChem BioAssay (NCI)
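Cultured in 96-well plates, cells were exposed to test compound for 48 hours across five concentrations. TGI denotes the concentration required for complete inhibition of growth.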

Experiments:
Experiment in all cases: inhibition of tumour cell growth, NCI panel, 48 h
[1] = tested on: 786-0 renal
[2] = tested on: A498 renal
[3] = tested on: ACHN renal
[4] = tested on: BT-549 breast
[5] = tested on: CAKI-1 renal
[6] = tested on: CCRF-CEM leukemia
[7] = tested on: COLO 205 colon
[8] = tested on: DU-145 prostate
[9] = tested on: EKVX NSCLC
[10] = tested on: HCT-116 colon
[11] = tested on: HCT-15 colon
[12] = tested on: HL-60(TB) leukemia
[13] = tested on: HOP-92 NSCLC
[14] = tested on: HS 578T breast
[15] = tested on: HT29 colon
[16] = tested on: IGROV1 ovarian
[17] = tested on: KM12 colon
[18] = tested on: LOX IMVI melanoma
[19] = tested on: MCF7 breast
[20] = tested on: MDA-MB-231 breast
[21] = tested on: MDA-MB-435
[22] = tested on: MDA-N
[23] = tested on: MOLT-4 leukemia
[24] = tested on: OVCAR-8 ovarian
[25] = tested on: RPMI-8226 leukemia
[26] = tested on: RXF 393 renal
[27] = tested on: SF-268 CNS
[28] = tested on: SK-MEL-28 melanoma
[29] = tested on: SK-MEL-5 melanoma
[30] = tested on: SK-OV-3 ovarian
[31] = tested on: SN12C renal
[32] = tested on: SNB-19 CNS
[33] = tested on: SNB-75 CNS
[34] = tested on: SW-620 colon
[35] = tested on: T-47D breast
[36] = tested on: TK-10 renal
[37] = tested on: U251 CNS
[38] = tested on: UACC-257 melanoma
[39] = tested on: UACC-62 melanoma
[40] = tested on: UO-31 renal
[41] = tested on: A549 NSCLC
[42] = tested on: HCC-2998 colon
[43] = tested on: HOP-62 NSCLC
[44] = tested on: K-562 leukemia
[45] = tested on: M14 melanoma
[46] = tested on: MALME-3M melanoma
[47] = tested on: NCI-H226 lung
[48] = tested on: NCI-H23 lung
[49] = tested on: NCI-H460 lung
[50] = tested on: NCI-H522 lung
[51] = tested on: NCI/ADR-RES ovarian
[52] = tested on: OVCAR-3 ovarian
[53] = tested on: OVCAR-4 ovarian
[54] = tested on: OVCAR-5 ovarian
[55] = tested on: PC-3 prostate
[56] = tested on: SF-295 CNS
[57] = tested on: SF-539 CNS
[58] = tested on: SK-MEL-2 melanoma
[59] = tested on: SR leukemia

CNc1nncc2[nH]cnc12
TGI [1]: > 100 µM
TGI [2]: > 100 µM
TGI [3]: > 100 µM
TGI [4]: > 100 µM
TGI [5]: > 100 µM
TGI [6]: > 100 µM
TGI [7]: > 100 µM
TGI [8]: > 100 µM
TGI [9]: > 100 µM
TGI [10]: > 100 µM
TGI [11]: > 100 µM
TGI [12]: > 100 µM
TGI [13]: > 100 µM
TGI [14]: > 100 µM
TGI [15]: > 100 µM
TGI [16]: > 100 µM
TGI [17]: > 100 µM
TGI [18]: > 100 µM
TGI [19]: > 100 µM
TGI [20]: > 100 µM
TGI [21]: > 100 µM
TGI [22]: > 100 µM
TGI [23]: > 100 µM
TGI [24]: > 100 µM
TGI [25]: > 100 µM
TGI [26]: > 100 µM
TGI [27]: > 100 µM
TGI [28]: > 100 µM
TGI [29]: > 100 µM
TGI [30]: > 100 µM
TGI [31]: > 100 µM
TGI [32]: > 100 µM
TGI [33]: > 100 µM
TGI [34]: > 100 µM
TGI [35]: > 100 µM
TGI [36]: > 100 µM
TGI [37]: > 100 µM
TGI [38]: > 100 µM
TGI [39]: > 100 µM
TGI [40]: > 100 µM

COC(=O)c1ccccc1CC1Cc2cccc(C)c2C1=O (configuration not stated)
TGI [1]: > 100 µM
TGI [41]: > 100 µM
TGI [3]: > 100 µM
TGI [4]: > 100 µM
TGI [5]: > 100 µM
TGI [6]: > 100 µM
TGI [7]: 39.3 µM
TGI [8]: > 100 µM
TGI [9]: 41.9 µM
TGI [42]: > 100 µM
TGI [10]: > 100 µM
TGI [11]: 73.3 µM
TGI [43]: > 100 µM
TGI [13]: 80.6 µM
TGI [14]: > 100 µM
TGI [15]: 58.3 µM
TGI [16]: > 100 µM
TGI [44]: 68.4 µM
TGI [17]: 66.6 µM
TGI [18]: 39.6 µM
TGI [45]: > 100 µM
TGI [46]: 48.3 µM
TGI [19]: 56.1 µM
TGI [20]: > 100 µM
TGI [21]: 50.8 µM
TGI [22]: > 100 µM
TGI [23]: 51.2 µM
TGI [47]: 71.5 µM
TGI [48]: > 100 µM
TGI [49]: > 100 µM
TGI [50]: 57.2 µM
TGI [51]: > 100 µM
TGI [52]: > 100 µM
TGI [53]: > 100 µM
TGI [54]: > 100 µM
TGI [24]: > 100 µM
TGI [55]: 77.8 µM
TGI [26]: 63.7 µM
TGI [27]: > 100 µM
TGI [56]: > 100 µM
TGI [57]: > 100 µM
TGI [58]: 53.2 µM
TGI [28]: 94.5 µM
TGI [29]: 37.5 µM
TGI [30]: > 100 µM
TGI [31]: > 100 µM
TGI [32]: > 100 µM
TGI [33]: 86.8 µM
TGI [34]: > 100 µM
TGI [35]: 82.7 µM
TGI [36]: 71.1 µM
TGI [37]: > 100 µM
TGI [38]: 73.3 µM
TGI [39]: 98.1 µM
TGI [40]: 67.2 µM

CCc1n[nH]c(=O)n1-c1ccc2ccccc2c1
TGI [1]: > 100 µM
TGI [2]: > 100 µM
TGI [41]: > 100 µM
TGI [3]: > 100 µM
TGI [5]: > 100 µM
TGI [6]: > 100 µM
TGI [7]: > 100 µM
TGI [8]: > 100 µM
TGI [9]: > 100 µM
TGI [42]: > 100 µM
TGI [10]: > 100 µM
TGI [11]: > 100 µM
TGI [43]: > 100 µM
TGI [13]: > 100 µM
TGI [14]: > 100 µM
TGI [15]: > 100 µM
TGI [16]: > 100 µM
TGI [44]: > 100 µM
TGI [17]: > 100 µM
TGI [18]: > 100 µM
TGI [45]: > 100 µM
TGI [46]: > 100 µM
TGI [19]: > 100 µM
TGI [20]: > 100 µM
TGI [21]: > 100 µM
TGI [22]: > 100 µM
TGI [23]: > 100 µM
TGI [47]: > 100 µM
TGI [48]: > 100 µM
TGI [49]: > 100 µM
TGI [50]: > 100 µM
TGI [51]: > 100 µM
TGI [52]: > 100 µM
TGI [53]: > 100 µM
TGI [54]: > 100 µM
TGI [24]: > 100 µM
TGI [25]: > 100 µM
TGI [26]: > 100 µM
TGI [27]: > 100 µM
TGI [56]: > 100 µM
TGI [57]: > 100 µM
TGI [58]: > 100 µM
TGI [28]: > 100 µM
TGI [29]: > 100 µM
TGI [30]: > 100 µM
TGI [31]: > 100 µM
TGI [32]: > 100 µM
TGI [33]: > 100 µM
TGI [59]: > 100 µM
TGI [34]: > 100 µM
TGI [35]: > 100 µM
TGI [36]: > 100 µM
TGI [37]: > 100 µM
TGI [38]: > 100 µM
TGI [39]: > 100 µM
TGI [40]: > 100 µM

CCCCOCCOC1=C(Cl)C(=O)c2c(O)ccc(O)c2C1=O
TGI [1]: 0.505 µM
TGI [2]: 4.33 µM
TGI [41]: 4.64 µM
TGI [3]: 1.1 µM
TGI [4]: 0.341 µM
TGI [5]: 1.36 µM
TGI [6]: 0.242 µM
TGI [7]: 0.397 µM
TGI [8]: 3.08 µM
TGI [9]: 7.59 µM
TGI [42]: 6.01 µM
TGI [10]: 0.841 µM
TGI [11]: 0.331 µM
TGI [43]: 2.49 µM
TGI [13]: 0.657 µM
TGI [14]: 5.43 µM
TGI [15]: 2.16 µM
TGI [16]: 2.47 µM
TGI [17]: 3.37 µM
TGI [18]: 0.946 µM
TGI [45]: 0.525 µM
TGI [46]: 0.628 µM
TGI [19]: 2.04 µM
TGI [20]: 1.07 µM
TGI [21]: 1.07 µM
TGI [22]: 0.766 µM
TGI [23]: 1.96 µM
TGI [47]: 4.63 µM
TGI [48]: 1.02 µM
TGI [49]: 3.48 µM
TGI [50]: 1.33 µM
TGI [51]: 9.14 µM
TGI [52]: 1.63 µM
TGI [53]: 1.99 µM
TGI [54]: 2.66 µM
TGI [24]: 2.56 µM
TGI [55]: 3.08 µM
TGI [25]: 0.806 µM
TGI [26]: 0.668 µM
TGI [27]: 3.18 µM
TGI [56]: 2.91 µM
TGI [57]: 2.44 µM
TGI [58]: 2.78 µM
TGI [28]: 1.23 µM
TGI [29]: 1.98 µM
TGI [30]: 6.65 µM
TGI [31]: 1.59 µM
TGI [32]: 1.82 µM
TGI [33]: 2.01 µM
TGI [34]: 0.387 µM
TGI [35]: 4.07 µM
TGI [36]: 1.81 µM
TGI [37]: 3.55 µM
TGI [38]: 1.15 µM
TGI [39]: 2.64 µM
TGI [40]: 1.72 µM
